Some results are limits rather than exact numbers.

The Ki is the equilibrium dissociation constant of an inhibitor or competing ligand from its target. For orientation: IC50 means the concentration that inhibits the measured activity by half. As usually defined, the inhibition is the relative decrease from the control value, in per cent. The Cmax is the peak of the concentration-time curve.

One data set deals with CDK2/Cyclin A (Homo sapiens, UniProt P24941). Kind of data set: CDK2/Cyclin A assay ([32P]ATP, Rb fragment). It is filed as biochemical.
The next data set addresses CDK4/Cyclin D3 complex (Homo sapiens, UniProt P11802). Kind of data set: CDK4/Cyclin D assay ([32P]ATP, Rb fragment).
In the next data set the target is T1, human CHK1 (FL-CHK1) (Homo sapiens, UniProt O14757).
T1 construct: C-terminally His-tagged full-length human CHK1 (FL-CHK1); made in house; host or cells: baculovirus/insect cell system
T1 sequence (O14757 1-476): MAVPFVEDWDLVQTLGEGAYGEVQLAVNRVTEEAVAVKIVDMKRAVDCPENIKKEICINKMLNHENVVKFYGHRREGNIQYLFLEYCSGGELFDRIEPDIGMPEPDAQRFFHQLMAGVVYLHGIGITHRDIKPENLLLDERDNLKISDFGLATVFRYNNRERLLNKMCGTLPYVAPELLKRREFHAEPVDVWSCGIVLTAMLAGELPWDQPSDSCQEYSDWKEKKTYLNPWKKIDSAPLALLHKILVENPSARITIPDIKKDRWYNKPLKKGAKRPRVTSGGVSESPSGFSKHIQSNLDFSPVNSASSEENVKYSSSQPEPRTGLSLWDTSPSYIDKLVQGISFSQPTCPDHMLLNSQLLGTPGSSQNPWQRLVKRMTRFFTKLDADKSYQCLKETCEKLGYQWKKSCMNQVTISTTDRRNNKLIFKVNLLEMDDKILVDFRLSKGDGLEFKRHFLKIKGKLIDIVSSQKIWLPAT
The data set is described as follows: CHK1 assay (coupled spectrophotometric, Syntide-2). Type of data set: biochemical. Conditions: Table 1. An excerpt: CHK1 Construct for Assay: C-terminally His-tagged full-length human CHK1 (FL-CHK1) was expressed using the baculovirus/insect cell system. […] The protein was purified by conventional chromatographic techniques.
The production of ADP from ATP that accompanies phosphoryl transfer to the synthetic substrate peptide Syntide-2 ([…]) was coupled to oxidation of NADH using phosphoenolpyruvate (PEP) through the actions of pyruvate kinase (PK) and lactic dehydrogenase (LDH). The oxidation of NADH was monitored by following the decrease of absorbance at 340 nm (ε340=6.22 cm^−1 mM^−1) using a HP8452 spectrophotometer. […] Assays were initiated with 10 nM of FL-CHK1. Ki values were determined by measuring initial enzyme activity in the presence of varying concentrations of test compounds. The data were analyzed using Enzyme Kinetic and Kaleidagraph software.

The test system of data set [1] is human umbilical vein endothelial cells (HUVEC). The data set is described as follows: HUVEC proliferation assay (VEGF-stimulated, MTT). Type of data set: cell-based. The settings on record: Homo sapiens, HUVEC; read-out: HUVEC IC50.
The target in data set [2] is unphosphorylated VEGF-R2Δ50 (FLVK) (Homo sapiens, UniProt P35968, DEL940-989/E990V). The data set is described as follows: VEGF-R2 coupled spectrophotometric assay, unphosphorylated VEGF-R2Δ50 (FLVK). Conditions: FLVK Ki, Table 1.
The target in a further data set is human FGF-R1 (Homo sapiens, UniProt P11362, C488A/C584S/L457V). The data set is described as follows: FGF-R spectrophotometric assay.
Data set [3] in a line: Determination of inhibitor concentration in mouse plasma after intraperitoneal and oral dosing. It is filed as in vivo. The settings on record: PO, 25 mg/kg. In outline: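 Mice dosed intraperitoneally or orally; blood taken by ocular bleed at 0.5, 1 and 4 h and by intracardiac puncture at 7 h. Plasma extracted with ethyl acetate after internal standard and NaOH addition, analysed by HPLC or LC-MS against a mouse-plasma standard curve.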

Where [4] appears, read: vehicle PEG400:H2O pH 2.3 30:70.

Sequence of CDK4/Cyclin D3 complex (P11802 whole entry, the tested form may be a part): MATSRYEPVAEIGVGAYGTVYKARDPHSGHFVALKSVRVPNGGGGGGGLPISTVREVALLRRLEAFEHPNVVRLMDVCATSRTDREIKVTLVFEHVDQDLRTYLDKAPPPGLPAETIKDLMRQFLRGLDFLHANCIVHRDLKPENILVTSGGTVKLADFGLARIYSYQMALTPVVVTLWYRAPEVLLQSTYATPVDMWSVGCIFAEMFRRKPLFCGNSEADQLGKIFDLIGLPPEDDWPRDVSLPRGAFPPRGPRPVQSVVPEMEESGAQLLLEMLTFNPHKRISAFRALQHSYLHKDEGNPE
Sequence of CDK4/Cyclin D3 complex (P30281 whole entry partner, the tested form may be a part): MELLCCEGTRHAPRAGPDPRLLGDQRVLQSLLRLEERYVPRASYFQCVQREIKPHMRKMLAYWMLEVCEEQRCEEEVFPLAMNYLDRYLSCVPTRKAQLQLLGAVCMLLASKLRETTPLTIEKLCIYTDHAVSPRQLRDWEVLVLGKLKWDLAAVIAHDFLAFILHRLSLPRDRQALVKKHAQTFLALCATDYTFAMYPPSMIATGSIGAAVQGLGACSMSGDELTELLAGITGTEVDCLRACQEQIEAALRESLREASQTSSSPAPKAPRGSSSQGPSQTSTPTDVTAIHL
Sequence of unphosphorylated VEGF-R2Δ50 (FLVK) (P35968 with tags, fused parts or gaps DEL940-989/E990V limits assumed): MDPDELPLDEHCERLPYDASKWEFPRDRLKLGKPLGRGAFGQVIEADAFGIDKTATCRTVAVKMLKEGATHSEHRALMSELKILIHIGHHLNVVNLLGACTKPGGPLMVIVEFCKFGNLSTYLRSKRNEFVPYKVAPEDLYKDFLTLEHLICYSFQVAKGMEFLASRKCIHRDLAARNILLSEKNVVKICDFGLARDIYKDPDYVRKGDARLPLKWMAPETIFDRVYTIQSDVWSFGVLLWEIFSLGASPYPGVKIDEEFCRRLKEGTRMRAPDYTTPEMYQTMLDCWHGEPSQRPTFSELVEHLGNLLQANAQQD
Sequence of human FGF-R1 (P11362 456-766 L457V/C488A/C584S): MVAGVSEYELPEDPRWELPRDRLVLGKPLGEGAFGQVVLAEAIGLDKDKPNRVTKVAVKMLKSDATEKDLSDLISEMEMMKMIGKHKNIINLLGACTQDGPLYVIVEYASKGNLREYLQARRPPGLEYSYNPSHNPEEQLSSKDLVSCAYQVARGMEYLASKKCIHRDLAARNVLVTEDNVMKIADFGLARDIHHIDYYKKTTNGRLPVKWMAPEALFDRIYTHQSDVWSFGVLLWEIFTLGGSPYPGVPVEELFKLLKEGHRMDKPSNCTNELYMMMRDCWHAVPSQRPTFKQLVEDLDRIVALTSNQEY

Take `Fc1cccc(/C=C/c2n[nH]c3cc(-c4ccncc4)ccc23)c1F` [29(l), 6-Pyrid-4-yl-3-E-[2-(2,3-difluorophenyl)ethenyl]-1H-indazole]: the Ki at CDK2/Cyclin A (Table 3) was determined as 3.1 µM; at CDK4/Cyclin D3 complex, 5000 nM.

Consider `Oc1ccc(-c2ccc3c(/C=C/c4ccccc4)n[nH]c3c2)cc1OCc1ccccc1` [Example 1(b), 3-(E-Styryl)-6-(3-benzyloxy-4-hydroxy-phenyl)-1H-indazole], for which the Ki at human CHK1 (FL-CHK1) (read-out: CHK-1 Ki) stood at 1400 nM; at CDK2/Cyclin A (Table 1), 4 µM; on CDK4/Cyclin D3 complex it was 1300 nM; in data set [2] it was 2.2 nM. Also, in data set [1], the IC50 is more than 1000 nM.

Consider `COc1cc(-c2ccc3c(-c4ccc5ccccc5c4)n[nH]c3c2)ccc1O` [Example 2(a), 3-(Naphthalen-2-yl)-6-(3-methoxy-4-hydroxy-phenyl)-1H-indazole], for which the inhibition at 20 µM on human CHK1 (FL-CHK1) (read-out: CHK-1 % inhibition, @20 μM) turned out to be 61%. Besides, the Ki turned out to be 0.61 µM on CDK2/Cyclin A (Table 1), 1600 nM on CDK4/Cyclin D3 complex and 40 nM in data set [2]. Moreover, in data set [1], the IC50 was more than 1000 nM.

As to `COc1cc(-c2ccc3c(-c4cc(OC)c(OC)c(OC)c4)n[nH]c3c2)ccc1O` [Example 2(c), 3-(3,4,5-Trimethoxyphenyl)-6-(3-methoxy-4-hydroxy-phenyl)-1H-indazole], the Ki on CDK2/Cyclin A (Table 1, μM) was 50 µM; on CDK4/Cyclin D3 complex, 26000 nM; in data set [2] it was 2600 nM.

`Cc1cccc(C(=O)Nc2cccc(Oc3ccc4c(/C=C/c5ccccc5)n[nH]c4c3)c2)c1` [Example 5(b), 3-Methyl-N-[3-(3-styryl-1h-indazol-6-yloxy)-phenyl]-benzamide] registered a Ki on human FGF-R1 of 14 nM.

For `Cc1cc(O)ccc1-c1ccc2c(-c3nc4ccccc4[nH]3)n[nH]c2c1` [Example 24(b), 4-[3-(1-H-Benzoimidazol-2-yl)-1-H-indazol-6-yl]-3-methyl-phenol], the Ki at CDK4/Cyclin D3 complex is 3.2 nM.

On to `CCc1cc(O)ccc1-c1ccc2c(-c3nc4ccccc4[nH]3)n[nH]c2c1` [Example 24(e), 3-1H-Benzoimidazol-2-yl-6-(2-ethyl-4-hydroxyphenyl)-1H-indazole], for which the results for the Ki on CDK2/Cyclin A (Table 2) and on CDK4/Cyclin D3 complex were 0.03 µM and 4.4 nM, respectively.

As to `Oc1ccc(-c2ccc3c(-c4nc5ccccc5[nH]4)n[nH]c3c2)c(O)c1` [Example 24(f), 3-1H-Benzoimidazol-2-yl-6-(2,4-dihydroxyphenyl)-1H-indazole], the figures for the Ki at CDK2/Cyclin A (Table 2) and on CDK4/Cyclin D3 complex were 0.0072 µM and 7.4 nM, respectively.

For `COCCc1cc(O)ccc1-c1ccc2c(-c3nc4ccccc4[nH]3)n[nH]c2c1` [Example 24(h), 3-1H-Benzoimidazol-2-yl-6-(2-(2-methoxyethyl)-4-hydroxyphenyl)-1H-indazole], the results for the Ki on CDK2/Cyclin A (Table 2) and at CDK4/Cyclin D3 complex were 0.054 µM and 53 nM, respectively.

On to `Cc1cc(O)cc(C)c1-c1ccc2c(-c3nc4ccccc4[nH]3)n[nH]c2c1` [Example 24(j), 3-1H-Benzoimidazol-2-yl-6-(2,6-dimethyl-4-hydroxyphenyl)-1H-indazole], for which the Ki on CDK2/Cyclin A (Table 2) is 2.1 µM; on CDK4/Cyclin D3 complex, 320 nM.

`COc1cc(-c2ccc3c(-c4nc5ccccc5[nH]4)n[nH]c3c2)c(CO)cc1O` [Example 24(n), 3-1H-Benzoimidazol-2-yl-6-(2-(hydroxymethyl)-5-methoxy-4-hydroxy-phenyl)-1H-indazole]: the values for the Ki on CDK2/Cyclin A (Table 2) and at CDK4/Cyclin D3 complex were 0.035 µM and 19 nM, respectively.

`Oc1cccc(-c2ccc3c(-c4nc5ccccc5[nH]4)n[nH]c3c2)c1` [Example 24(o), 3-1H-Benzoimidazol-2-yl-6-(3-hydroxyphenyl)-1H-indazole]: the Ki came to 0.029 µM at CDK2/Cyclin A (Table 2) and 200 nM on CDK4/Cyclin D3 complex.

As for `COc1c(O)cccc1-c1ccc2c(-c3nc4ccccc4[nH]3)n[nH]c2c1` [Example 24(p), 3-1H-Benzoinidazol-2-yl-6-(2-methoxy-3-hydroxyphenyl)-1H-indazole], the results for the Ki on CDK2/Cyclin A (Table 2) and on CDK4/Cyclin D3 complex were 0.089 µM and 92 nM, respectively.

On to `COc1cc(O)ccc1-c1ccc2c(-c3nc4cnccc4[nH]3)n[nH]c2c1` [Example 25(a), 3-(3H-Iniidazo[4,5-c]pyridin-2-yl)-6-(4-hydroxy-2-methoxyphenyl)-1H-indazole], for which the Ki came out at 0.08 µM at CDK2/Cyclin A (Table 2) and 21 nM on CDK4/Cyclin D3 complex.

At CDK4/Cyclin D3 complex, `COc1cc(O)ccc1-c1ccc2c(-c3nc4ccc(C(=O)NCCN5CCOCC5)cc4[nH]3)n[nH]c2c1` [Example 25(b), 3-[6-(2-Morpholin-4-yl-ethylcarbamoyl)-1H-benzoimidazol-2-yl]-6-(2-methoxy-4-hydroxyphenyl)-1H-indazole] gave a Ki of 48 nM.

`COc1cc(O)ccc1-c1ccc2c(-c3nc4ccc(N5CCN(C)CC5)cc4[nH]3)n[nH]c2c1` [Example 25(c), 3-[6-(4-Methylpiperazin-1-yl)-1H-benzoimidazol-2-yl]-6-(2-methoxy-4-hydroxyphenyl)-1H-indazole]: the Ki at CDK4/Cyclin D3 complex came out at 15.5 nM.

Regarding `COc1cc(O)ccc1-c1ccc2c(-c3nc4c(N5CCN(C)CC5)cccc4[nH]3)n[nH]c2c1` [Example 25(d), 3-[4-(4-Methylpiperazin-1-yl)-1H-benzoinidazol-2-yl]-6-(2-methoxy-4-hydroxyphenyl)-1H-indazole], the Ki on CDK2/Cyclin A (Table 2) was determined as 0.16 µM; at CDK4/Cyclin D3 complex, 98 nM.

On CDK4/Cyclin D3 complex, `COc1cc(O)ccc1-c1ccc2c(-c3ncc[nH]3)n[nH]c2c1` [Example 25(e), 3-Imdazol-2-yl-6-(2-methoxy-4-hydroxyphenyl)-1H-indazole] had a Ki of 181 nM.

For `COc1cc(O)ccc1-c1ccc2c(-c3nc4c(SCCO)cccc4[nH]3)n[nH]c2c1` [Example 25(f), 3-[4-(2-Hydroxyethylsulfanyl)-1H-benzoimidazol-2-yl]-6-(2-methoxy-4-hydroxyphenyl)-1H-indazole], the Ki turned out to be 0.39 µM at CDK2/Cyclin A (Table 2) and 1000 nM at CDK4/Cyclin D3 complex.

`CNC(=O)c1ccc2[nH]c(-c3n[nH]c4cc(-c5ccc(O)cc5OC)ccc34)nc2c1` [Example 25(g), 3-(5-Methylcarbamoyl-1H-benzoimidazol-2-yl)-6-(2-methoxy-4-hydroxyphenyl)-1H-indazole]: the inhibition constant (Ki) on CDK2/Cyclin A (Table 2) is 0.08 µM; on CDK4/Cyclin D3 complex, 21 nM.

For the compound `COc1cc(O)ccc1-c1ccc2c(-c3nc4cc(N(C)C)ccc4[nH]3)n[nH]c2c1` [Example 25(h), 3-(5-Dimethylamino-1H-benzoimidazol-2-yl)-6-(2-methoxy-4-hydroxy-phenyl)-1H-indazole], the Ki on CDK2/Cyclin A (Table 2) worked out at 0.17 µM; on CDK4/Cyclin D3 complex, 24 nM.

With `COc1cc(O)ccc1-c1ccc2c(-c3nc4ccc(S(N)(=O)=O)cc4[nH]3)n[nH]c2c1` [Example 25(i), 3-(5-Aminosulfonyl-1H-benzoimidazol-2-yl)-6-(2-methoxy-4-hydroxy-phenyl)-1H-indazole], the Ki at CDK2/Cyclin A (Table 2) was determined as 0.021 µM; at CDK4/Cyclin D3 complex it was 20 nM.

Take `CNC(=O)c1cccc2[nH]c(-c3n[nH]c4cc(-c5ccc(O)cc5OC)ccc34)nc12` [Example 25(j), 3-(4-Methylcarbamoyl-1H-benzoinidazol-2-yl)-6-(2-methoxy-4-hydroxy-phenyl)-1H-indazole]: the Ki came to 0.079 µM at CDK2/Cyclin A (Table 2) and 16 nM at CDK4/Cyclin D3 complex.

Consider `Clc1ccc(/C=C/c2n[nH]c3cc(-c4ccncc4)ccc23)cc1` [Example 29(c), 6-Pyrid-4-yl-3-E-[2-(4-chlorophenyl)ethenyl]-1H-indazole], for which the Ki on CDK2/Cyclin A (Table 3) was 2.2 µM; at CDK4/Cyclin D3 complex it was 2000 nM.

For the compound `CC(=O)Nc1cc(C(=O)c2ccc3c(/C=C/c4ccccn4)n[nH]c3c2)ccc1C` [Example 41(gg), 6-(3-Acetamido-4-methylbenzoyl)-3-E-[2-(pyridin-2-yl)ethenyl]-1H-indazole], in data set [3] (setting [4]), the AUClast came to 2692 ng·h/mL, the highest concentration (Cmax) stood at 2079 ng/mL and the “plasma half-life (T1/2)” value was found to be 1.1 h. Besides, the concentration at 7 h in data set [3] (female, vehicle PEG400:H2O pH 2.3 30:70, read-out: Cmin (7 hr conc.)) stood at 29 ng/mL. The compound also showed a Ki at human FGF-R1 of 3.5 nM.

The values are drawn from patent publication US6534524B1, “Indazole compounds and pharmaceutical compositions for inhibiting protein kinases, and methods for their use” (Agouron Pharmaceuticals, Inc., priority 1999, dated 2003).
